Test results as given in ChEMBL document CHEMBL1201862, “PubChem BioAssay data set” (2004).
Activity calls are given as the source filed them.

What was measured:
[1] = HEp-2 cell cytotoxicity, dose response, cytotoxicity control for RSV inhibitor project, HTS (AID 2410); type: functional; details: human respiratory syncytial virus
[2] = target: 26S proteasome non-ATPase regulatory subunit 14 (Homo sapiens, UniProt O00487); assay: inhibition of proteasome subunit RPN11 – biochemical, fluorescence polarization, uHTS hits, confirmation (AID 602368); type: functional
[3] = target: 72 kDa type IV collagenase (Homo sapiens, UniProt P08253); assay: Dose Response validation of uHTS RPN11 inhibitor hits using a MMP-2 Fluorescence assay.; type: functional
Prothrombin [4] = target: Prothrombin (Bos taurus, UniProt P00735); assay: thrombin inhibition, dose response, biochemical, fluorescence polarization, uHTS hits (AID 602369); type: functional
[5] = A cytotoxicity screen of small molecule inhibitors of the PhoP region in Salmonella typhi identified in the primary screen. [Related pubchem assays: 1850, 1864, 1985 ]; type: functional
[6] = inhibitors of HIV Env-driven cell fusion, dose response, cherry-pick (AID 652057); type: functional, cell-based
[7] = ZM109 Env clade C HIV-1 fusion inhibitors, dose response, HeLa effector, CEM target cells, luciferase, cherry-pick (AID 652058); type: functional, cell-based
[8] = off-target signal loss in HeLa-CEM21 co-culture – HeLa F-luc CTL cells, cherry-picked, counter-screen for HIV-1 Env fusion inhibitor project, dose response (AID 652040); type: functional, cell-based;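 further: potency for signal decrease marking cytotoxic or nonspecific inhibition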
[9] = inhibitors of clade B AD8 Env fusion, dose response, cell-based, cherry-pick (AID 652062); type: functional;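 further: luciferase signal from cell-cell fusion driven by HIV-1 clade B AD8 Env; potency is for inhibitors of fusion seen as a drop in luminescence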
[10] = target: T1, Mannose-6-phosphate isomerase (Homo sapiens, UniProt P34949); assay: human PMI inhibitors, high substrate, primary screen, biochemical, fluorescence intensity, high mannose 6-phosphate (AID 1220)
T1 sequence (P34949 whole entry): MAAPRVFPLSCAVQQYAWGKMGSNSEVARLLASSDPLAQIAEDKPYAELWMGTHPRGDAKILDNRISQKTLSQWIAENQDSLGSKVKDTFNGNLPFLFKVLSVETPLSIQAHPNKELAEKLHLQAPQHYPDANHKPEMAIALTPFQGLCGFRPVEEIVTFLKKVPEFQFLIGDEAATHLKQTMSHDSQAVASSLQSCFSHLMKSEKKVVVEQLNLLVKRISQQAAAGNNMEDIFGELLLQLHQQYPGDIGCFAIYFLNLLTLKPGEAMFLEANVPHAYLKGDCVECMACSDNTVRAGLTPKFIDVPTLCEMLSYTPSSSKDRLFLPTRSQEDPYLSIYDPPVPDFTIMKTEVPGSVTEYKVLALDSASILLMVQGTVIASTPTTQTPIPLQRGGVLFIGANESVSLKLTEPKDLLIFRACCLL

INS1 = assay: beta cell apoptosis inhibitors, cytokine rescue, dose response, luminescence, retest (AID 449756); type: functional, cell-based; details: Rattus norvegicus;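 further: cell death triggered by IL-1 beta plus TNF-alpha plus IFN-gamma mixture; protective hits raise ATP signal compared with cytokine alone wells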
Kallikrein-7 = Kallikrein-7 (Homo sapiens, UniProt P49862); assay: Fluorescence Intensity-based biochemical primary high throughput dose response assay to identify activators of kallikrein-7 (K7) zymogen.
H9c2 = assay: cells; type: functional, cell-based; details: Rattus norvegicus, H9c2, Myocardium;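 further: confirmatory concentration-response retest of ultra-high-throughput screening hits for modulation of myocardial damage; cell death induced by hydrogen peroxide oxidative stress; compound pretreatment for 60 min then peroxide exposure for 2 h; potency is for protecting the cells against peroxide damage rather than for killing them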
[11] = target: Voltage-dependent T-type calcium channel subunit alpha-1H (Homo sapiens, UniProt O95180); type: functional;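 further: channel activity triggered by adding a high calcium stimulation buffer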
[12] = target: FAD-linked sulfhydryl oxidase ALR (Homo sapiens, UniProt P55789); assay: inhibitors of human ALR sulfhydryl oxidase, dose response, biochemical, H2O2 detection, luminescence, cherry-pick (AID 493248)
BJ [13] = assay: cytotoxicity toward BJ-TERT fibroblasts, dose response, cell-based, RAS-independent, luminescence (AID 1933); type: functional; details: Homo sapiens
BJ [14] = assay: cells; type: functional, cell-based; details: Homo sapiens
BJ [15] = assay: cytotoxicity toward BJ-TERT-LT-ST fibroblasts, dose response, cell-based, RAS-independent, luminescence (AID 1935); type: functional; details: Homo sapiens;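 further: BJ fibroblasts immortalized with TERT plus LT and ST oncogenes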
[16] = cytotoxicity toward DRD oncogenic fibroblasts, dose response, cell-based, non-viral oncogenic, luminescence (AID 1934); type: functional; details: Homo sapiens
[17] = target: T2, Corticotropin-releasing factor receptor 2/Corticotropin-releasing factor-binding protein (Homo sapiens, UniProt P24387+Q13324); assay: Dose Response confirmation of uHTS hits for small molecule antagonists of the CRF-binding protein and CRF-R2 receptor complex.; type: functional; details: read-out: IC50_Mean
T2 sequence (Q13324 whole entry): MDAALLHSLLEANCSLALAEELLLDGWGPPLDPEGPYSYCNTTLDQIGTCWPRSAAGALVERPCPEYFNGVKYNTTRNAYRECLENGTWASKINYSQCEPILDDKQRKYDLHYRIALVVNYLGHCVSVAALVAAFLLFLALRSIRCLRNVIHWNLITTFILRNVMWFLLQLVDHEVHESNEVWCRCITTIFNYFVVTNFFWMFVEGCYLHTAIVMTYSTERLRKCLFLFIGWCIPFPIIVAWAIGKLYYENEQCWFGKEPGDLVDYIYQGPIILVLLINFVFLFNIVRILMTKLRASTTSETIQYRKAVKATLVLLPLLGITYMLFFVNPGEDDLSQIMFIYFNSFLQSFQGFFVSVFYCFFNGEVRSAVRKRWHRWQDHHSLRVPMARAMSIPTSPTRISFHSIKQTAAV
T2 sequence (P24387 whole entry): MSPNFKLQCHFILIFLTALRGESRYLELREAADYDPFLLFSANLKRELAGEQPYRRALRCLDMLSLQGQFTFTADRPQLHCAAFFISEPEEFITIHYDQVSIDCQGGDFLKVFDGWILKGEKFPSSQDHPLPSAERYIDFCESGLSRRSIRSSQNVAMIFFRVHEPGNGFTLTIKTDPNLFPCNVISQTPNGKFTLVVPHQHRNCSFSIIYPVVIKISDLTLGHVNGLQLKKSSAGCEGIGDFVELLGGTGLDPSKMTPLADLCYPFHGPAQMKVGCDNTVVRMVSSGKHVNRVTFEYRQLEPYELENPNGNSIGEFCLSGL

[18] = target: T2, Corticotropin-releasing factor receptor 2/Corticotropin-releasing factor-binding protein; assay: activators of CRF receptor 2 with binding protein – uHTS hits, confirmation (AID 602473); type: functional; details: read-out: EC50_Mean
[19] = inhibitors of firefly luciferase expression or activity, dose response, H4 neuroglioma cells, luminescence (AID 1990); type: functional, cell-based
[20] = A Cell Based Secondary Assay To Explore Cytotoxicity of Compounds that Sensitize Mycobacterium Tuberculosis to Beta-Lactam Antibiotics.; type: functional
[21] = Luminescence Cell-Based Dose Response HTS to Identify Inhibitors of 5'UTR Stem-Loop Driven Prion Protein mRNA Translation in H4 Neuroglioblastoma Cells. [Related pubchem assays: 1827 (Project Summary), 1813 (Primary HTS)]; type: functional
[22] = inhibitors of SNCA 5'UTR-driven reporter translation, confirmation, H4 neuroglioma cells, luminescence (AID 1988); type: functional, cell-based
Prothrombin [23] = target: Prothrombin (Homo sapiens, UniProt P00734); assay: Thrombin 1536 HTS Dose Response Confirmation. [Related pubchem assays: 1046 (Thrombin 1536 HTS; hits were confirmed in this assay)]; type: functional
[24] = target: T3, Polyadenylate-binding protein 1 (Homo sapiens, UniProt P11940); assay: PABP1 MLLE–PAM2 interaction inhibitors, dose response, miRNA deadenylation inhibitor project, biochemical, fluorescence polarization, Cy5-PAM2 peptide, secondary (AID 602260); type: functional; details: read-out: IC50_Mean
[25] = target: T3, Polyadenylate-binding protein 1; assay: PABP1 MLLE–PAM2 binding inhibitor potency, dose response, biochemical, fluorescence polarization, FITC-PAM2 peptide (AID 602259); type: functional; details: read-out: IC50_Mean
cells [26] = type: functional, cell-based
cells [27] = type: functional, cell-based; remark: listed apart in the source
Vero = Vero cell cytotoxicity, cytotoxicity control for flavivirus capping enzyme inhibitors (AID 588742); type: functional; details: Chlorocebus sabaeus
[28] = Shn3 3'UTR reporter inhibitors, dose response, cell-based, Clone20 osteoblasts, firefly luciferase, cherry-picked (AID 624132); type: functional;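 further: firefly luciferase luminescence from reporter carrying the Shn3 3'UTR in osteoblasts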
[29] = HepG2 cell cytotoxicity, dose response, cytotoxicity control for Shn3 inhibitor project, CellTiter-Glo, cherry-picked (AID 624134); type: functional, cell-based
[30] = control 3'UTR Renilla luciferase suppression, dose response, counter-screen for Shn3 inhibitor project, cell-based, Clone20-Shn3RL, cherry-picked (AID 624133); type: functional
Paired box protein Pax-8 = Paired box protein Pax-8 (Homo sapiens, UniProt Q06710); assay: inhibitors of PAX8-driven TPO luciferase reporter, dose response, RMG-I cells, cherry-pick (AID 687027); type: functional, cell-based;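 further: luciferase reporter driven by Pax8 target thyroperoxidase promoter measured by SteadyGlo luminescence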
[31] = NIH:OVCAR-3 ovarian cancer cell cytotoxicity, dose response, PAX8 inhibitor project, plate reader, dry powder samples (AID 743044); type: functional, cell-based
[32] = IGROV1 ovarian cancer cell cytotoxicity, dose response, PAX8 inhibitor project, plate reader, dry powder samples (AID 743043); type: functional, cell-based; details: IGROV-1

72 kDa type IV collagenase, sequence (P08253 whole entry): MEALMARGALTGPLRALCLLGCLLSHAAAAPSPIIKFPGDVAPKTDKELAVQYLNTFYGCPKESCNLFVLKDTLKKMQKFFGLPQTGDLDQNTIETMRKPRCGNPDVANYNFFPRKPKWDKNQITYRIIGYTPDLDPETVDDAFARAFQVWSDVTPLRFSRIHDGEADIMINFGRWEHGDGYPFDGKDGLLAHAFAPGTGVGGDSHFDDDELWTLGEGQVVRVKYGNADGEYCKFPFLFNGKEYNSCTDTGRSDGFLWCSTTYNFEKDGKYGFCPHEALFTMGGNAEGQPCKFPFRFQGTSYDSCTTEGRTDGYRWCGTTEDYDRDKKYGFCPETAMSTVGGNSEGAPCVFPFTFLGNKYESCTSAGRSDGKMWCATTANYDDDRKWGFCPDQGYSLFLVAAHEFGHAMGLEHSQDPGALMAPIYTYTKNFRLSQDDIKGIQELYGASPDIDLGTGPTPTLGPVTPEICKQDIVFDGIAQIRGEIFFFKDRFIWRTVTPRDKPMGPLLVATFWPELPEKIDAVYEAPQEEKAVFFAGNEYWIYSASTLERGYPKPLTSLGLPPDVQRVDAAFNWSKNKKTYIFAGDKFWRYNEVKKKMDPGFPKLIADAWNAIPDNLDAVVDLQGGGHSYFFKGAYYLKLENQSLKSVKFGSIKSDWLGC
Kallikrein-7, sequence (P49862 whole entry): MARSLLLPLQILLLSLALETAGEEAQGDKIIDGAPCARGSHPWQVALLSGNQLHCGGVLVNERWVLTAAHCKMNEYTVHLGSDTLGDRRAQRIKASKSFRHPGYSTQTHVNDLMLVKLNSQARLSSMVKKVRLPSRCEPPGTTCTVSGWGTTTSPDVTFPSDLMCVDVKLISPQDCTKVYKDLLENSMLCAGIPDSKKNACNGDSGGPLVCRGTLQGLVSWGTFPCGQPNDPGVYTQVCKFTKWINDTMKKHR
26S proteasome non-ATPase regulatory subunit 14, sequence (O00487 whole entry): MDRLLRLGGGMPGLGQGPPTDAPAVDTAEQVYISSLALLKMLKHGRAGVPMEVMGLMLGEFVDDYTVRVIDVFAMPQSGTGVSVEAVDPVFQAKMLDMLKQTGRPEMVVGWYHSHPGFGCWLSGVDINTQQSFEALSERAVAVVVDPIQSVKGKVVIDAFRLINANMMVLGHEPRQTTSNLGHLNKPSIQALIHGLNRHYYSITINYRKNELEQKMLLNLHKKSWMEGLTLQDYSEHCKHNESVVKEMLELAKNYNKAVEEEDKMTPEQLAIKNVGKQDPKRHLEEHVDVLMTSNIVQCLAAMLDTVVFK
T3 sequence (P11940 whole entry): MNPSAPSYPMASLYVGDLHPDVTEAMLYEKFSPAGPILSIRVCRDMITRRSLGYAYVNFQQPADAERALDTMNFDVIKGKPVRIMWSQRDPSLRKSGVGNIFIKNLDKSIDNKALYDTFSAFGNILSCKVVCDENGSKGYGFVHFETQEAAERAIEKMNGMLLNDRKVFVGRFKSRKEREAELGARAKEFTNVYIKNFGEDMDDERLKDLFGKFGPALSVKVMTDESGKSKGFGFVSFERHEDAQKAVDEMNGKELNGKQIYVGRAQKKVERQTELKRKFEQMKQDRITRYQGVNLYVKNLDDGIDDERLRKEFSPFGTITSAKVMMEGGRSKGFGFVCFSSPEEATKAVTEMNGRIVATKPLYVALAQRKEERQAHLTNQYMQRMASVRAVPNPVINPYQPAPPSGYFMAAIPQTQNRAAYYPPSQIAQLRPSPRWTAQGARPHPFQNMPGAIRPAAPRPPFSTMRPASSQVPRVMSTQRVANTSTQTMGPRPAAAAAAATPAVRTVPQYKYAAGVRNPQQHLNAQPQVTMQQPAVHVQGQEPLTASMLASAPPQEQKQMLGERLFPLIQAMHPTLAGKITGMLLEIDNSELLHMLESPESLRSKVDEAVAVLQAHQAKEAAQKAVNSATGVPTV
Voltage-dependent T-type calcium channel subunit alpha-1H, sequence (O95180 whole entry): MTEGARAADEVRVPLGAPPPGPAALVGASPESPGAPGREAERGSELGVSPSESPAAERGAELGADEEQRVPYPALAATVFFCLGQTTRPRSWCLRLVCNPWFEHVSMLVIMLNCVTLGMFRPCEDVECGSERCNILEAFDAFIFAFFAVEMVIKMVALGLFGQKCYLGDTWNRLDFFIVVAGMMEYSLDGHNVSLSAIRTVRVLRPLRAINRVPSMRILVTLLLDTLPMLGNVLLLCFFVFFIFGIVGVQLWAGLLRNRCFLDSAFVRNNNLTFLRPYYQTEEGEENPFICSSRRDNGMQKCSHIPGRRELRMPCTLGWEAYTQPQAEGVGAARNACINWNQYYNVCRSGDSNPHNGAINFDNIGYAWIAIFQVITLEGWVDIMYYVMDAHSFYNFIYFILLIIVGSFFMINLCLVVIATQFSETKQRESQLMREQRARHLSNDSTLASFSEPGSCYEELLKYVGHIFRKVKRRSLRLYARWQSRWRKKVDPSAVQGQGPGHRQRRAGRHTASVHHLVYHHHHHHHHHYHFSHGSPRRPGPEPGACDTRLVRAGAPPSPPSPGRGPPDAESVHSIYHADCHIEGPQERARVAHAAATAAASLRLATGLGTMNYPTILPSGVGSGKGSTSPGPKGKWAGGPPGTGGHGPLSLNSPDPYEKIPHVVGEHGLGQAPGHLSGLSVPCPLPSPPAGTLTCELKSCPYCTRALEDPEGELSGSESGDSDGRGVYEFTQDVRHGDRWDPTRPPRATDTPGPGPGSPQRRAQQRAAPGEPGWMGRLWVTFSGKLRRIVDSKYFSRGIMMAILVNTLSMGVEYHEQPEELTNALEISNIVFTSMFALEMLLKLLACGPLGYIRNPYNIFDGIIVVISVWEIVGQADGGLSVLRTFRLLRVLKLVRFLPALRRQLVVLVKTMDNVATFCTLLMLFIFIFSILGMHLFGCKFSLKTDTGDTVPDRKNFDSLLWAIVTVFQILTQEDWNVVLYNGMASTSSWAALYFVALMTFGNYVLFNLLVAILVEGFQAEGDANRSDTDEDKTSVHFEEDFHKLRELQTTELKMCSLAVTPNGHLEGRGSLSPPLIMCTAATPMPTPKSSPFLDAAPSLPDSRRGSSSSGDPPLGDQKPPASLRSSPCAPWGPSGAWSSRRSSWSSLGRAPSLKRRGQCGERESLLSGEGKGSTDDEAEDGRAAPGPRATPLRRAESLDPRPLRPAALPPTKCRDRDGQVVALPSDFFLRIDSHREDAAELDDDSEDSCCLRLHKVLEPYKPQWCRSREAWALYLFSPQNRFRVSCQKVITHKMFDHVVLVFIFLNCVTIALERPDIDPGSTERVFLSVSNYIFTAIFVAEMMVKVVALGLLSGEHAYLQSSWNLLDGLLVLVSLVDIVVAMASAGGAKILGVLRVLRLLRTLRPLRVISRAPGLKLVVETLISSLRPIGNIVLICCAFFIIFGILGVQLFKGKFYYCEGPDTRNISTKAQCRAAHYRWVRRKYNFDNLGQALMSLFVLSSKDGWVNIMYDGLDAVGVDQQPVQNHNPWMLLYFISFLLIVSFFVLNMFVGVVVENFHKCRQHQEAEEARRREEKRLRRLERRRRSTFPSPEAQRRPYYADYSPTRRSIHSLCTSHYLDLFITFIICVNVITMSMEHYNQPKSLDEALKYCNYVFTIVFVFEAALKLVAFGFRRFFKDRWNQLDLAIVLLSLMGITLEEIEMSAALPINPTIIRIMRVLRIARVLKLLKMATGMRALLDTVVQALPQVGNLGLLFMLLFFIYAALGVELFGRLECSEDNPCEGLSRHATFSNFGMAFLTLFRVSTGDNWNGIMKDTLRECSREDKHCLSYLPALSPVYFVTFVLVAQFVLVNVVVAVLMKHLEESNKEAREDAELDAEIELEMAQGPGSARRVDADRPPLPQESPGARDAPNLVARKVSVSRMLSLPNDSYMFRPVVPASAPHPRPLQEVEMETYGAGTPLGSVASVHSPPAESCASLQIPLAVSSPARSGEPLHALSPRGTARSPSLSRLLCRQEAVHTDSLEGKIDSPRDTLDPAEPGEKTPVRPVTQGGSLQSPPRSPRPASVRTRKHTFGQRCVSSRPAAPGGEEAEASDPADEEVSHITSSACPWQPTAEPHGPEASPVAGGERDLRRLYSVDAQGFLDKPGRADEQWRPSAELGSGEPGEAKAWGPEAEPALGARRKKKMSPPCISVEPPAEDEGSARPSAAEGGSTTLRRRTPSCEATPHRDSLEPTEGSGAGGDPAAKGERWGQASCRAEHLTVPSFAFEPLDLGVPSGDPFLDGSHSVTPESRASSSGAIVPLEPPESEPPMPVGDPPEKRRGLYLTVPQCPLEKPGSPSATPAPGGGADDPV
FAD-linked sulfhydryl oxidase ALR, sequence (P55789 whole entry): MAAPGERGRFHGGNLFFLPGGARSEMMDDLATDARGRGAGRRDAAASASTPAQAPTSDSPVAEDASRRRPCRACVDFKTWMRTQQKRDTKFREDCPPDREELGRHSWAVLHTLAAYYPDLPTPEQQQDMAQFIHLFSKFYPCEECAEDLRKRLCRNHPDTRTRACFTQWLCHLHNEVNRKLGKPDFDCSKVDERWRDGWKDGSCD
Paired box protein Pax-8, sequence (Q06710 whole entry): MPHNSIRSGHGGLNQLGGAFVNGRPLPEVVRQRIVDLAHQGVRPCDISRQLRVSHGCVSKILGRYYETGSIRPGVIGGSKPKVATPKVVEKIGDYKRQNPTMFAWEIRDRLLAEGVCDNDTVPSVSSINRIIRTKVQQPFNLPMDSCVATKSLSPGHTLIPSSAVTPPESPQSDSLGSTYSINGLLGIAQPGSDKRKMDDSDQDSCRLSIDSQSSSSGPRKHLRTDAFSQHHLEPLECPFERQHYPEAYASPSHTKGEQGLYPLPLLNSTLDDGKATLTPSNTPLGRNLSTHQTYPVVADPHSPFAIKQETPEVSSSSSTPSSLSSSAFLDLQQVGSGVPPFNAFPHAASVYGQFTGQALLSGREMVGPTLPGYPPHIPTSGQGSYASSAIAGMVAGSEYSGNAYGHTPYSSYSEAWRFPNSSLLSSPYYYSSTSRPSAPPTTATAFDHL

N#C/C(=C\C1=C(N2CCOCC2)C(=C\c2ccc(Cl)cc2)/CC1)C(=O)Nc1ccccc1F
CC50 [1]: 18.3 µM (active)
IC50 [2]: 6.46 µM (active)
IC50 [3]: > 100 µM (inactive)
IC50 (Prothrombin [4]): 17 µM (active)

COC(=O)C1=C(C)N(CC2CC2)C(=O)N[C@H]1c1ccc(Br)cc1
CC50 [1]: 35.1 µM (active)
EC50 [5]: > 50 µM (active)
AC50 [6]: 7.14 µM (active)
AC50 [7]: 14.7 µM (active)
AC50 [8]: 11.7 µM (active)
AC50 [9]: 8.52 µM (active)

Oc1ccc(CNc2ccccc2)c2cccnc12
IC50 [10]: > 50 µM (not active)
AC50 (INS1): 14.4 µM (active)

CCCCc1cc(=O)oc2cc(C)cc(OCC(=O)N3CCC(C(=O)O)CC3)c12
EC50 (Kallikrein-7): > 7.72 µM (active)

COc1ccc(OC)c(N2C(=O)/C(=C/Nc3c(C)n(C)n(-c4ccccc4)c3=O)C(=O)NC2=S)c1
IC50 [2]: 34.7 µM (active)
IC50 [3]: 38.7 µM (active)
IC50 (Prothrombin [4]): 51.9 µM (active)

COc1ccccc1NC(=O)COc1ccc(C(=O)OCC(=O)NC(C)(C)C)cc1OC
IC50 (H9c2): > 79 µM (inactive)

Cc1ccc2[nH]c(C(=O)O)c(NC(=O)CN3CCN(c4cccc(C)c4C)CC3)c2c1
CC50 [1]: 13.9 µM (active)
EC50 [5]: > 50 µM (active)
EC50 [11]: 5.05 µM (active)
AC50 [12]: 16.3 µM (active)

O=C(COC(=O)Cn1[nH]c(=O)c2ccccc2c1=O)NNC(=O)c1ccc(Br)cc1
IC50 (H9c2): 17.2 µM (active)

COc1cc(Nc2c3c(nc4ccccc24)CCC3)cc(OC)c1OC
EC50 (BJ [13]): 2.86 µM (active)
EC50 (BJ [14]): 42.7 µM (inconclusive)
EC50 (BJ [15]): 18.5 µM (inconclusive)
EC50 [16]: 2.38 µM (active)

Cc1cccc(N2CCN(C(=O)CCc3nc(O)c4ccccc4n3)CC2)c1C
IC50 (H9c2): > 79 µM (inactive)
IC50 [17]: > 47.1 µM (inactive)
EC50 [18]: > 53 µM (inactive)

O=C(N/N=C/c1ccc(Cl)cc1Cl)c1ccc2[nH]cnc2c1
IC50 [2]: 20.9 µM (active)
IC50 [3]: > 100 µM (inactive)
IC50 (Prothrombin [4]): 51.7 µM (active)

CCOC(=O)/C=c1\s/c(=C\c2c(OC)ccc3ccccc23)c(=O)n1CC(=O)NCC1CCCO1 (stereo not given)
EC50 [19]: 10.5 µM (active)
CC50 [20]: 12.6 µM (active)
EC50 [21]: 12.3 µM (active)
EC50 [22]: 8.43 µM (active)

O=C(Nc1ccccc1)c1nc[nH]c1C(=O)NCCCCCCNC(=O)c1[nH]cnc1C(=O)Nc1ccccc1
IC50 (H9c2): > 79 µM (inactive)

COc1ccc(Cl)cc1NC(=O)CN(C)C(=O)c1ccc(N2CCCCCC2)c([N+](=O)[O-])c1
CC50 [20]: > 40 µM (active)

COc1ccccc1NC(=O)CSc1nc(N)c(C#N)cc1C#N
IC50 [2]: 36.2 µM (active)
IC50 [3]: > 100 µM (inactive)
IC50 (Prothrombin [4]): 55.8 µM (active)

CCOC(=O)Cc1csc(NC(=O)c2sc3nc4ccc(C)cc4cc3c2N)n1
IC50 [2]: 33.9 µM (active)
IC50 [3]: > 100 µM (inactive)
IC50 (Prothrombin [4]): 77.9 µM (active)

CCN1CCN(c2nc(O)c3c(n2)CCC3)CC1
IC50 (H9c2): > 79 µM (inactive)

COc1ccccc1C(=O)N1CC2(C)CC1CC(C)(C)C2 (stereo not given)
EC50 [5]: > 50 µM (active)

CC(=O)N1C(=O)/C(=C2\SC(=S)N(c3c(C)n(C)n(-c4ccccc4)c3=O)C2=O)c2ccccc21
IC50 (Prothrombin [23]): 8.97 µM (active)
IC50 [10]: > 50 µM (not active)
IC50 [24]: > 66 µM (inactive)
IC50 [25]: > 66 µM (inactive)

CCc1cc2c(CN3CCN(Cc4ccccc4)CC3)cc(=O)oc2cc1O
EC50 (Kallikrein-7): > 69.5 µM (inactive)

Cc1cc2nc(-c3ccc(SCc4ccccn4)nc3)[nH]c2cc1C
EC50 (Kallikrein-7): 12.9 µM (inactive)

COc1ccc(C(NC(=O)c2cccnc2)c2cc(Cl)c3cccnc3c2O)cc1OC (stereo not given)
EC50 [19]: 13.3 µM (active)
EC50 (cells [26]): 14.2 µM (active)
EC50 [21]: 0.297 µM (active)
EC50 [22]: > 120 µM (not active)
EC50 (cells [27]): > 350 µM (not active)
CC50 (Vero): 3.92 µM (active)
AC50 [28]: 1.88 µM (active)
AC50 [29]: 2.7 µM (active)
AC50 [30]: 1.14 µM (active)

CCCC(=O)Nc1ccc2nn(-c3ccc(OC)cc3)nc2c1
EC50 (Kallikrein-7): > 69.5 µM (inactive)

C[C@H]1CCCCO[C@H](CN(C)C(=O)Nc2ccc(C(F)(F)F)cc2)[C@@H](C)CN([C@@H](C)CO)C(=O)c2cc(NC(=O)CCC(F)(F)F)ccc2O1
AC50 (Paired box protein Pax-8): 6.57 µM (active)
AC50 [31]: 39.9 µM (active)
AC50 [32]: 54.7 µM (active)
